Source: US20210290839A1, “SYSTEMS AND METHODS FOR DETECTING AND TREATING BACTERIAL BIOFILMS” (UNIVERSITY OF MARYLAND, COLLEGE PARK, priority 2017, published 2021)
Entries after “also recorded” stand apart in the source; their conditions may differ.

Assays:
Format in all cases: cell-based
bacterial biofilm [1] = assay: End-point confocal microscopy quantification of bacterial biofilm thickness (FIG. 8); settings: Combination: 100 μM autoinducer-2 analog isobutyl DPD plus 0.125V AC at 10 MHz offset by 0.125V DC, compared with either alone
Excerpt: FIG. 8 is a bar graph showing the results of end-point confocal microscopy quantification of bacterial biofilm thickness for different treatment conditions, including combined electrical measuring and quorum sensing inhibitors (e.g., autoinducer-2 analog).
Although the preceding paragraphs address the bioelectric effect based on antibiotics, similar results can be obtained with other antimicrobial agents, such as quorum sensing inhibitors. In particular, FIG. 8 illustrates the results of experiments for different treatment conditions using autoinducer-2 analog. “LB control” represents an experiment where no electric field or autoinducer-2 analog was present. “E-field only” represents an experiment where an electrical signal of 0.125V AC at 10 MHz offset by 0.125V DC was applied to electrodes, without any autoinducer-2 analog present. “AI-2 analog” represents an experiment where autoinducer-2 analog is introduced (e.g., 100 μM autoinducer-2 analog isobutyl DPD) without any electrical signal applied to the electrodes. “Combination” represents an experiment where the electrical signal is applied to the electrodes and autoinducer-2 analog is introduced.

[2] = tested on: Escherichia coli (K12 W3110) biofilm; assay: Real-time impedance sensing of biofilm during 24-hour treatment period (FIG. 6A); settings: BE: gentamicin 10 μg/ml plus sensing, AC 50 mV at 100 Hz, 30 s of every 150 s; 24-hour treatment of 24-hour biofilm; increase corresponds to removal of biofilm
Procedure: (§1) In particular, each experiment employed a flow system including a growth media reservoir, waste reservoir, and the detecting device connected using polymer tubing and luer connectors in between the reservoirs. Fluid was pumped through the flow system by a peristaltic pump. The detecting device and tubing were placed in an incubator maintained at 37° C., to mimic the temperature found in an inserted catheter. Escherichia coli (K12 W3110) were cultured in incubator at 37° C. and then diluted to an OD600 of 0.25. 1 ml of the diluted E. coli solution was then introduced into the catheter tube directly via syringe. The bacteria were allowed to attach to the interior surface under static (no flow) conditions for 2 hours (referred to as the Seeding phase). […] Throughout the Growth phase, the system impedance (Z) is measured by the detecting device every 2 minutes, with the relative change being used to monitor biofilm formation. […]
As noted above, the sensing voltage applied to the electrodes of the detecting device 300 can also synergistically enhances any antimicrobial agent present to deliver a bioelectric effect. FIG. 6A illustrates the measured impedance characteristics in experiments employing a detecting device fabricated according to the structure of FIGS. 3A-3B and employing a benchtop potentiostat as the voltage source. […]

[3] = tested on: Escherichia coli (K12 W3110) biofilm; assay: Crystal violet absorbance assay biomass quantification (FIG. 6B); settings: 24-hour treatment
Procedure: as §1, with “syringe.” for “syringe. The bacteria were allowed to attach to the interior surface under static (no flow) conditions for 2 hours (referred to as the Seeding phase).”
CV absorbance staining was used to quantify the end-point biomass and to validate the impedance measurements of FIG. 6A. […] Optical absorbance at a wavelength (λ) of 590 nm was then measured, with increases corresponding to increased biomass. One-way analysis of variance (ANOVA) was used to determine statistical significance of the biomass quantification results.
FIG. 6B illustrates the results of the CV absorbance assay for various treatment conditions in experiments employing a detecting device fabricated according to the structure of FIGS. 3A-3B and employing a benchtop potentiostat as the voltage source.

bacterial biofilm [4] = assay: Real-time fractional relative change of impedance during treatment with threshold-triggered 100 mV signal (FIG. 7); settings: 24 hour treatment
Procedure: FIG. 7 illustrates the fractional relative change of impedance measurements in experiments similar to that of FIG. 6B. In particular, treatment is performed by applying a 100 mV signal across the same electrodes used for impedance detection, in combination with near MIC levels of antibiotic, thereby generating a second bioelectric effect. This bioelectric effect was applied at regular intervals for only ˜1/7 of the total 24 hour treatment period.
The “E-field” curve represents an experiment where an intervallic 100 mV AC electrical signal (e.g., at 1 MHz) in addition to the periodic 5 mV AC detection voltage was applied to the electrodes, but without any antibiotic present. The “BE” curve represents an experiment where an intervallic 100 mV AC electrical signal (e.g., at 1 MHz) in addition to the periodic 5 mV AC detection voltage was applied to the electrodes, and with 10 μg/mL of gentamicin present. The decision to apply the 100 mV AC signal in both experiments was made by logic using the impedance data gathered in the sensing mode (i.e., using the 5 mV AC detection voltage). If the average sensing mode data point was less than a predefined threshold, then the larger 100 mV electric field treatment was applied; otherwise, the system continued in sensing mode with the periodic application of the 5 mV AC detection voltage. […]

Molecule	reduction of biofilm thickness (bacterial biofilm [1])	impedance change during the treatment period [2] [%]	end-point biofilm biomass (CV absorbance at 590 nm) ([3]; Anti-only: antibiotic without impedance sensing)	end-point biofilm biomass (CV absorbance at 590 nm) ([3]; BE: sensing + antibiotic (gentamicin 10 μg/ml))	change in 100 Hz impedance at the end of treatment phase (bacterial biofilm [4]; "Antibiotic": 10 μg/mL gentamicin with periodic 5 mV AC detection voltage)	change in 100 Hz impedance at the end of treatment phase (bacterial biofilm [4]; "BE": 10 μg/mL gentamicin with intervallic 100 mV AC (1 MHz) plus periodic 5 mV AC detection voltage)
CC(C)CC(=O)C(=O)C(O)CO (stereo not drawn) [autoinducer-2 analog, isobutyl DPD]	substantially improved efficacy in reducing biofilm thickness over either alone					
gentamicin		~20	significantly higher biomass of biofilm	biomass similar to a bacteria-free control	increase in 100 Hz impedance; also recorded: as effective in treating the biofilm	increase in 100 Hz impedance
